Laboratory results published in ChEMBL document CHEMBL5291721, “A preclinical secondary pharmacology resource illuminates target-adverse drug reaction associations of marketed drugs” (Nat Commun, 2023).

Key:
Adenosine receptor A3 = target: T1, Adenosine receptor A3 (Homo sapiens, UniProt P0DMS8)
T1 sequence (P0DMS8 whole entry): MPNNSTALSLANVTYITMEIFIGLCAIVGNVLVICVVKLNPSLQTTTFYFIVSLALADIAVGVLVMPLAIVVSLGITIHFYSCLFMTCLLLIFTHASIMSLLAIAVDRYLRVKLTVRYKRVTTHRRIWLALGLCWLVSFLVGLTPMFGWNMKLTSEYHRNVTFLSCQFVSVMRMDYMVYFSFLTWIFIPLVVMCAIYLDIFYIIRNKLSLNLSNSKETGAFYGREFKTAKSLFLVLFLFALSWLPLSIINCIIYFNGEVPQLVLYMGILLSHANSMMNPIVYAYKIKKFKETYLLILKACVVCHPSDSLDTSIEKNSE

[1] = target: T2, Cholecystokinin receptor type A (Homo sapiens, UniProt P32238)
T2 sequence (P32238 whole entry): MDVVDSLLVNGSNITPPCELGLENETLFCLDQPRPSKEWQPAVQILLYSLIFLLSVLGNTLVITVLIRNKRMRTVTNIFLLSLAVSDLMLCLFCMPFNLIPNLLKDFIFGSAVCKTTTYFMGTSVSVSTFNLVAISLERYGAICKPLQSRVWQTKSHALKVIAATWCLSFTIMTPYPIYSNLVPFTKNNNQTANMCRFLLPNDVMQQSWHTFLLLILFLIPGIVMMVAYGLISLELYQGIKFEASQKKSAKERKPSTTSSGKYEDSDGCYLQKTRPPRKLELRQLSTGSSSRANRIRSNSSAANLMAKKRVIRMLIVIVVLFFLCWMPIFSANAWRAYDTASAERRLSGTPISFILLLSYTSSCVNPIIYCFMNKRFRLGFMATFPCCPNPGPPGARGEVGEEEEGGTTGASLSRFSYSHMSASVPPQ

[2] = target: 3',5'-cyclic-AMP phosphodiesterase 4D (Homo sapiens, UniProt Q08499); format: functional
Sequence of 3',5'-cyclic-AMP phosphodiesterase 4D (Q08499 whole entry): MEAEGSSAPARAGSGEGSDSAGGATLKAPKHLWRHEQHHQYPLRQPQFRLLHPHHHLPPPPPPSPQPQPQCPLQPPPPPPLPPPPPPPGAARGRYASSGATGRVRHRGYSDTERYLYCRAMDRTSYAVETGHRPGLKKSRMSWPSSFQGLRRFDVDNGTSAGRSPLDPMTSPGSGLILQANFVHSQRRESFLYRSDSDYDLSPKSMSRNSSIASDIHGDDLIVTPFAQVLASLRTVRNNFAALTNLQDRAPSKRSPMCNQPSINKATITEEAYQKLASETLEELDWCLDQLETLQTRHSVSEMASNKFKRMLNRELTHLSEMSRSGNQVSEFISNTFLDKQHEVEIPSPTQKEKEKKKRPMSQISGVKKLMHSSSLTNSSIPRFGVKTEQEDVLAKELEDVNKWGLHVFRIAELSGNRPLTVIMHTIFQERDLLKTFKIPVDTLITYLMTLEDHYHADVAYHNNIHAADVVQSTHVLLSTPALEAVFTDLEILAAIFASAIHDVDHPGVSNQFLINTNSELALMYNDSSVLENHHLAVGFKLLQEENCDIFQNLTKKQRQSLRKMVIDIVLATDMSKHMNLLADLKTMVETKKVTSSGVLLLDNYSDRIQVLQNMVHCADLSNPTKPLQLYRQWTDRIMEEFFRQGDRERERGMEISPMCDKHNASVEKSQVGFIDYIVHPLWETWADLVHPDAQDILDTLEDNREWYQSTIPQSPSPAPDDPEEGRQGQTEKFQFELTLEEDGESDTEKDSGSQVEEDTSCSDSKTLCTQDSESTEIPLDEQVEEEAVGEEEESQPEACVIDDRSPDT

Endothelin-1 receptor = target: T3, Endothelin-1 receptor (Homo sapiens, UniProt P25101)
T3 sequence (P25101 whole entry): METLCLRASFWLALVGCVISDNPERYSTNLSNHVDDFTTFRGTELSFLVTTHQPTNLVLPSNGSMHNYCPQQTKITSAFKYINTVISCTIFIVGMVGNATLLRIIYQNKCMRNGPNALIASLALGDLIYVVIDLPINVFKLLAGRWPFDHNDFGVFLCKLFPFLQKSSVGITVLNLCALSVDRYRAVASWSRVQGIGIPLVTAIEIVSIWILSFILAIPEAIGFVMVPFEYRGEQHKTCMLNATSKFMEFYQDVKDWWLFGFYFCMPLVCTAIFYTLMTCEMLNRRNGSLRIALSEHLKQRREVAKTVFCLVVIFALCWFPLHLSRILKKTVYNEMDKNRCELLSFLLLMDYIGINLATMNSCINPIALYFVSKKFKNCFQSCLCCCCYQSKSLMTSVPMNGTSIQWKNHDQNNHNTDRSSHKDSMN

[3] = target: cGMP-inhibited 3',5'-cyclic phosphodiesterase 3A (Homo sapiens, UniProt Q14432); format: functional
Sequence of cGMP-inhibited 3',5'-cyclic phosphodiesterase 3A (Q14432 whole entry): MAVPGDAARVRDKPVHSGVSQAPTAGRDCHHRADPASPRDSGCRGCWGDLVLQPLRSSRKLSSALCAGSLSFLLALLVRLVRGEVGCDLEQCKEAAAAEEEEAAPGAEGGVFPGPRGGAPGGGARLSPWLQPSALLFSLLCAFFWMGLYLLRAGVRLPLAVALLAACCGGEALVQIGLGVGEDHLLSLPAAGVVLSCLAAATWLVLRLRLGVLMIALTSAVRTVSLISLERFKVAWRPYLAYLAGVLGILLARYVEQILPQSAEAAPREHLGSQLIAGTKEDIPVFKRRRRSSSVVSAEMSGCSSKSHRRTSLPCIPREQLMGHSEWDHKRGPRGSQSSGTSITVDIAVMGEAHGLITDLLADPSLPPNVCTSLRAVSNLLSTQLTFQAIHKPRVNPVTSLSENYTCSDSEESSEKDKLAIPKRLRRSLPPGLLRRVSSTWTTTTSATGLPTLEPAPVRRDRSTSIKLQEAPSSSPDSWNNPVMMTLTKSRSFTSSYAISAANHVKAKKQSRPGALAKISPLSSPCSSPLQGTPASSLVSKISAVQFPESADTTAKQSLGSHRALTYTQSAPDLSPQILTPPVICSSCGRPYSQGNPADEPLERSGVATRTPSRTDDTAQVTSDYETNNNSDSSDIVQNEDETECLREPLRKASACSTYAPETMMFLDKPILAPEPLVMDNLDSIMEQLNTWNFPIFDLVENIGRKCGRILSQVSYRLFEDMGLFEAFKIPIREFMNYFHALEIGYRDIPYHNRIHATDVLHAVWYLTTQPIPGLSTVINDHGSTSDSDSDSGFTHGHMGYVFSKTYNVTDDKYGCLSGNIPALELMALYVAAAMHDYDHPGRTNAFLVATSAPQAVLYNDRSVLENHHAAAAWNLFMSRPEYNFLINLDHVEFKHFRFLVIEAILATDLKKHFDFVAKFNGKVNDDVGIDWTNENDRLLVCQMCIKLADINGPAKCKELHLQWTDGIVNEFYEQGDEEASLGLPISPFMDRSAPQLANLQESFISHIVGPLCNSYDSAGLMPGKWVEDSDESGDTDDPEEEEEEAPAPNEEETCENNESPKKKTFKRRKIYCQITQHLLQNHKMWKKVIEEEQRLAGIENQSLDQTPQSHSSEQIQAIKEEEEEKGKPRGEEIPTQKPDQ

[4] = target: T4, 5-hydroxytryptamine receptor 1A (Homo sapiens, UniProt P08908); format: functional, cell-based
T4 sequence (P08908 whole entry): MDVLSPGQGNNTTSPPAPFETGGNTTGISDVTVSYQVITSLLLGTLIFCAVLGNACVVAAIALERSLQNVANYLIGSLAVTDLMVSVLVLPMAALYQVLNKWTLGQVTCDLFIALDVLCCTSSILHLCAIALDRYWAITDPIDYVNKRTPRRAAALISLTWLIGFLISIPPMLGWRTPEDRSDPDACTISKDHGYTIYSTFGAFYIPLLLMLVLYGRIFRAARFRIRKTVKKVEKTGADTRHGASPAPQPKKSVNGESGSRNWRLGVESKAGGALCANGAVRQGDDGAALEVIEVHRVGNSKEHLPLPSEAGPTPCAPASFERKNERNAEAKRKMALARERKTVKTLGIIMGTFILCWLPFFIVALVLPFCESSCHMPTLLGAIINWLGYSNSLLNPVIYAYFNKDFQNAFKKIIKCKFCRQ

Adenosine receptor A2a = Adenosine receptor A2a (Homo sapiens, UniProt P29274)
Sequence of Adenosine receptor A2a (P29274 whole entry): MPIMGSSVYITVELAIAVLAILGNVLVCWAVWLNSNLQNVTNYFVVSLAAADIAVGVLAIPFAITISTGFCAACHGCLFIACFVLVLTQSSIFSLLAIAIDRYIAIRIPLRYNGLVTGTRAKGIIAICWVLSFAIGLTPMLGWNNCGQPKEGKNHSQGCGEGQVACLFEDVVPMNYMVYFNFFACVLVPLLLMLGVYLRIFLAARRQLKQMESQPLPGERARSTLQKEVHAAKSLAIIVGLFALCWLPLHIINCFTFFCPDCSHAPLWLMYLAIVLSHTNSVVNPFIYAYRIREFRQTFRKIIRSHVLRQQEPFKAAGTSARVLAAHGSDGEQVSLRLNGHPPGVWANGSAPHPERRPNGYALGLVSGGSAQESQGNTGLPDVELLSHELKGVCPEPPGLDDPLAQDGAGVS

[5] = target: T5, Muscarinic acetylcholine receptor M2 (Homo sapiens, UniProt P08172); format: functional, cell-based
T5 sequence (P08172 whole entry): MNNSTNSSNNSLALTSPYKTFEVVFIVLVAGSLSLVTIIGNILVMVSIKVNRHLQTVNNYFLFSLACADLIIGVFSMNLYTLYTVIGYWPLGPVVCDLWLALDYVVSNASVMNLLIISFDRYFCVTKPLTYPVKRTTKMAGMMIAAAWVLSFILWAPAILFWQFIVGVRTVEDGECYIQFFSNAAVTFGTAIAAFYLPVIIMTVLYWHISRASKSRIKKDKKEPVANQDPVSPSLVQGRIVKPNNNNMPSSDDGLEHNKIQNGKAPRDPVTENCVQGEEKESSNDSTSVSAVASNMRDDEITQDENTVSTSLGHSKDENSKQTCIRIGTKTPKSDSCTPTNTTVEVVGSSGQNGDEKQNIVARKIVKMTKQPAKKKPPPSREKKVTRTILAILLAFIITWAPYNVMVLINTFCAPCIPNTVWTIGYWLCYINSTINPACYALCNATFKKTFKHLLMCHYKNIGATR

Mu-type opioid receptor = Mu-type opioid receptor (Homo sapiens, UniProt P35372); assay: biochemical; format: functional
Sequence of Mu-type opioid receptor (P35372 whole entry): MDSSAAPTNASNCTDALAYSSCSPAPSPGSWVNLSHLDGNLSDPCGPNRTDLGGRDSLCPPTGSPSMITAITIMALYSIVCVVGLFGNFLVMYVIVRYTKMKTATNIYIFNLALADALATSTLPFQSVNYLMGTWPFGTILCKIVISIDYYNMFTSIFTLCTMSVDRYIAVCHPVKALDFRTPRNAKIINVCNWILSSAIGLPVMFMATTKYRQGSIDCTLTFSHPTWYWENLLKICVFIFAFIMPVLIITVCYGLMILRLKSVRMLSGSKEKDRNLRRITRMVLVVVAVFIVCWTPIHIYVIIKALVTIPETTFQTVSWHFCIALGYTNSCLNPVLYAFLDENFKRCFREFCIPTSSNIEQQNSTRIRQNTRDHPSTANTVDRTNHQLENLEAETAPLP

[6] = target: Beta-1 adrenergic receptor (Homo sapiens, UniProt P08588); format: functional
Sequence of Beta-1 adrenergic receptor (P08588 whole entry): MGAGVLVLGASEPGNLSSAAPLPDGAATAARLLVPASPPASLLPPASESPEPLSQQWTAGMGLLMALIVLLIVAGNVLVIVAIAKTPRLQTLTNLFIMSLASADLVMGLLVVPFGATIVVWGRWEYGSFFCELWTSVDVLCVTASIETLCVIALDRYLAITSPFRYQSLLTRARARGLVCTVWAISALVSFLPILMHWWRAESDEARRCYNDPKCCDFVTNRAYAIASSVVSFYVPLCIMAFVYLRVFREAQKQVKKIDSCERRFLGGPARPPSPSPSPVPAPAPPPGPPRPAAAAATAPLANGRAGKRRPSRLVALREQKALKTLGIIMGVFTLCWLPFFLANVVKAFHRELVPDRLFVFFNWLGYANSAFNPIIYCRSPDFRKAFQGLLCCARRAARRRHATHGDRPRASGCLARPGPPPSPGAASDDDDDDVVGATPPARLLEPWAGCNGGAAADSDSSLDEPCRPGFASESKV

[7] = target: Growth hormone secretagogue receptor type 1 (Homo sapiens, UniProt Q92847)
Sequence of Growth hormone secretagogue receptor type 1 (Q92847 whole entry): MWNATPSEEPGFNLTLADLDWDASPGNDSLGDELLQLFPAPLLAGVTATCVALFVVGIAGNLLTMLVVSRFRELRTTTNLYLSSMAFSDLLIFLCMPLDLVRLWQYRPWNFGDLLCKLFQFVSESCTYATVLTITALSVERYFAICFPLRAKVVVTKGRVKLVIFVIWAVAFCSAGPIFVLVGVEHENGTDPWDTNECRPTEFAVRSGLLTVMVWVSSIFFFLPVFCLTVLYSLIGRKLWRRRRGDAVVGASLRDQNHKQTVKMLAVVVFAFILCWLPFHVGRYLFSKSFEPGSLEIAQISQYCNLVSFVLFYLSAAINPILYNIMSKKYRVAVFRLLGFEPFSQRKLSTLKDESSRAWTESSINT

D(3) dopamine receptor = D(3) dopamine receptor (Homo sapiens, UniProt P35462)
Sequence of D(3) dopamine receptor (P35462 whole entry): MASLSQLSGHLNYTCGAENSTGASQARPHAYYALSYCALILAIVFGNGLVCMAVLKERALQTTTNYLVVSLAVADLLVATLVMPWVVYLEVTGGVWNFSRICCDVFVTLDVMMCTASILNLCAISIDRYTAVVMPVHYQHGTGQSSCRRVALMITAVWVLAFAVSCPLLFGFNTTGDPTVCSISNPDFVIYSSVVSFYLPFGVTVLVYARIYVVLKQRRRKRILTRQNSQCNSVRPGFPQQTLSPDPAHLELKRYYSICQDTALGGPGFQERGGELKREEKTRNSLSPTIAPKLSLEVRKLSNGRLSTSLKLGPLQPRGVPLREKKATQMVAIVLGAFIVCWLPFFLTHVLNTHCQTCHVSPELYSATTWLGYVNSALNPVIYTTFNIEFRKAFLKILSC

[8] = target: Sodium-dependent noradrenaline transporter (Homo sapiens, UniProt P23975)
Sequence of Sodium-dependent noradrenaline transporter (P23975 whole entry): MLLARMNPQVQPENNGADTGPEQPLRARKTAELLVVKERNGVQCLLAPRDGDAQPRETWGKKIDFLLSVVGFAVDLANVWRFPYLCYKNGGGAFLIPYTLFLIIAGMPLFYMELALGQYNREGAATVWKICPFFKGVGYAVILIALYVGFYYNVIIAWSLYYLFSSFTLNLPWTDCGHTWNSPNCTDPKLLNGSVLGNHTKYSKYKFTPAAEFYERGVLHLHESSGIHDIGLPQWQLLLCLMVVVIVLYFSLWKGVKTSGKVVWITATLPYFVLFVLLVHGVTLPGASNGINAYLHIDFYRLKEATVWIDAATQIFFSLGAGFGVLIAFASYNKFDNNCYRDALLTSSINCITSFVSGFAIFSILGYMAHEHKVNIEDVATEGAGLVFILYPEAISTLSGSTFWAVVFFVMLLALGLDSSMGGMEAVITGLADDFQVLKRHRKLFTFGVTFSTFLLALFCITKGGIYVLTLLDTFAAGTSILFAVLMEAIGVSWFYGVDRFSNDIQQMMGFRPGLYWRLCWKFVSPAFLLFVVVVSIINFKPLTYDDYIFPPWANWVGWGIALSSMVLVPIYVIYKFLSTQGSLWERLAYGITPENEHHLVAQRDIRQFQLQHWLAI

[9] = target: Voltage-gated inwardly rectifying potassium channel KCNH2 (Homo sapiens, UniProt Q12809); format: functional
Note: assay procedure not described here.

| Compound | AC50 (Adenosine receptor A3) [µM] | AC50 [1] [µM] | AC50 [2] [µM] | AC50 (Endothelin-1 receptor) [µM] | AC50 [3] [µM] | AC50 [4] [µM] | AC50 (Adenosine receptor A2a) [µM] | AC50 [5] [µM] | AC50 (Mu-type opioid receptor) [µM] | AC50 [6] [µM] | AC50 [7] [µM] | AC50 (D(3) dopamine receptor) [µM] | AC50 [8] [µM] | AC50 ([9]; read-out: AC50) [µM] | AC50 ([9]; human, cellular components) [µM] |
| --- | --- | --- | --- | --- | --- | --- | --- | --- | --- | --- | --- | --- | --- | --- | --- |
| COc1ccc(/C=C/C(=O)Nc2ccccc2C(=O)O)cc1OC | > 30 | > 30 | 21 | > 30 | 24 | > 30 | > 30 | > 30 | > 30 | > 30 | > 30 | > 30 | > 30 |  |  |
| NCCCC(O)(P(=O)(O)O)P(=O)(O)O [ALENDRONIC ACID] | > 30 | > 30 | > 30 | > 30 | 1.09 | > 10 | > 30 |  |  | > 10 | > 30 |  |  |  |  |
| COc1cccc2c1C(=O)c1c(O)c3c(c(O)c1C2=O)C[C@@](O)(C(C)=O)C[C@@H]3O[C@H]1C[C@H](N)[C@H](O)[C@H](C)O1 [DAUNORUBICIN] | 26.5 | 24 | 22 | > 30 | > 30 |  | 30 |  | > 30 | 28 | 5.17 | 17.9 | 10.4 | > 30 |  |
| CC(=O)OCC(CCn1cnc2cnc(N)nc21)COC(C)=O [FAMCICLOVIR] | > 30 | > 30 | > 30 | > 30 | > 30 | > 10 | > 30 | > 10 |  | > 10 | > 30 | > 10 | > 10 | > 30 |  |
| Clc1ccc(C(Cn2ccnc2)OCc2ccc(Sc3ccccc3)cc2)c(Cl)c1 (stereo not given) [FENTICONAZOLE] | 6.4 | > 30 | 18 | > 30 | > 30 | > 30 | > 30 | > 30 | > 30 | > 30 | > 30 | 30 |  | 1.45 |  |
| Nc1ccn([C@@H]2O[C@H](CO)[C@@H](O)C2(F)F)c(=O)n1 [GEMCITABINE] | > 30 | > 30 | 16 |  | 11 | > 10 | > 30 | > 10 |  | > 30 | > 30 | > 30 | > 30 | > 30 |  |
| COC1=C(OC)C(=O)C(CCCCCCCCCCO)=C(C)C1=O [IDEBENONE] | > 30 | > 30 | > 10 | > 30 | 6.4 | > 10 | > 30 | > 10 |  | > 10 | > 30 | > 10 | > 10 | > 30 |  |
| CC1(C)C(/C=C/C=C/C=C/C=C2\N(CCCCS(=O)(=O)O)c3ccc4ccccc4c3C2(C)C)=[N+](CCCCS(=O)(=O)[O-])c2ccc3ccccc3c21 [INDOCYANINE GREEN ACID FORM] | 3 | 19 | 2.3 | > 30 | 29 | > 30 | > 30 |  |  | 9.4 | 14 | 8.7 | 5.2 | 6.5 |  |
| CCn1cc(C(=O)O)c(=O)c2cc(F)c(N3CCN(C)CC3)cc21 [PEFLOXACIN] | > 30 | > 30 | > 30 | > 30 | > 30 | > 30 | > 30 | > 30 | > 30 | > 30 | > 30 | 3.6 | > 30 |  |  |
| C[n+]1ccccc1/C=N/O [PRALIDOXIME] |  |  | 24 |  | > 30 |  |  |  | > 30 |  |  | > 30 |  | > 30 |  |
| CC(C)CC(N(C)C)C1(c2ccc(Cl)cc2)CCC1 (stereo not given) [SIBUTRAMINE] | > 30 | > 30 | > 30 | > 30 | > 30 | > 30 | > 30 | > 30 | > 30 | > 10 | > 30 | > 10 |  | 8.34 |  |
| CC(C)(C)NC[C@H](O)COc1nsnc1N1CCOCC1 [TIMOLOL] | > 30 | > 30 | > 30 | > 30 | > 30 | > 30 | > 30 | > 30 | > 30 |  | > 30 | > 30 | > 30 | > 30 |  |
| COc1cc2nccc(Oc3ccc(NC(=O)Nc4cc(C)on4)c(Cl)c3)c2cc1OC [TIVOZANIB] | > 3 |  | 27 |  | 16 |  | > 3 | > 30 |  |  |  |  | > 3 | > 1 |  |
| Cc1cccc(N(C)C(=S)Oc2ccc3ccccc3c2)c1 [TOLNAFTATE] | > 10 | > 10 | > 30 |  | > 30 | > 10 | > 10 | > 10 | > 30 | > 10 | > 10 | > 30 | > 10 | > 30 |  |
| CN1[C@@H]2CC[C@H]1C[C@@H](OC(=O)c1c[nH]c3ccccc13)C2 [TROPISETRON] | > 30 | > 10 | > 30 | > 30 | > 30 | > 30 | > 30 | > 30 | > 30 | > 30 | > 30 | > 30 |  | 0.95 |  |
| COc1ccc(C(CN(C)C)C2(O)CCCCC2)cc1 (stereo not given) [VENLAFAXINE] | > 30 | > 30 | > 10 |  | > 10 | > 30 | > 30 | > 10 |  | > 10 | > 30 |  |  | > 30 |  |
| COLISTIN |  |  | > 30 |  | > 30 | > 30 |  |  | > 30 |  |  | > 30 |  |  | > 30 |
